Assay results: ChEMBL document CHEMBL4630909 (2021)
The source made the active and inactive calls. The rule behind the calls is not given here.

Legend:
[1] = target: Muscarinic acetylcholine receptor M2 (Homo sapiens) (UniProt P08172); details: Compound concentration 10.0 uM
C-C motif chemokine 2 = C-C motif chemokine 2 (Homo sapiens, UniProt P13500); assay: In vitro inhibition of MCP-1 in Lipopolysaccharide-stimulated human whole blood; format: tissue-based
D(2) dopamine receptor = D(2) dopamine receptor (Homo sapiens, UniProt P14416); details: Compound concentration 10.0 uM
[2] = target: D(3) dopamine receptor (Homo sapiens) (UniProt P35462); details: Compound concentration 10.0 uM
CREB-binding protein = CREB-binding protein (Homo sapiens, UniProt Q92793); assay: CREBBP DiscoverX BROMOscan
[3] = target: Histone acetyltransferase KAT2B (Homo sapiens, UniProt Q92831); assay: PCAF DiscoverX BROMOscan
[4] = target: T1, GABA-A receptor; anion channel (Rattus norvegicus) (UniProt O09028+P15431+P18506+P18508+P19969+P20236+P23574+P23576+P28471+P28473+P30191+P62813+P63079+P63138+Q91ZM7+Q9ES14); details: Compound concentration 10.0 uM
[5] = target: 5-hydroxytryptamine receptor 1B (Homo sapiens, UniProt P28222); details: Compound concentration 10.0 uM
[6] = target: Histone acetyltransferase KAT2A (Homo sapiens, UniProt Q92830); assay: GCN5L2 DiscoverX BROMOscan
[7] = target: Bromodomain adjacent to zinc finger domain protein 2B (Homo sapiens, UniProt Q9UIF8); assay: BAZ2B DiscoverX BROMOscan
[8] = target: Delta-type opioid receptor (Homo sapiens) (UniProt P41143); details: Compound concentration 10.0 uM
[9] = target: Bromodomain and WD repeat-containing protein 1 (Homo sapiens, UniProt Q9NSI6); assay: WDR9(2) DiscoverX BROMOscan
[10] = target: 5-hydroxytryptamine receptor 3A (Homo sapiens) (UniProt P46098); details: Compound concentration 10.0 uM
[11] = target: 5-hydroxytryptamine receptor 6 (Homo sapiens) (UniProt P50406); details: Compound concentration 10.0 uM
[12] = target: Beta-2 adrenergic receptor (Homo sapiens, UniProt P07550); details: Compound concentration 10.0 uM
[13] = target: D(4) dopamine receptor (Homo sapiens) (UniProt P21917); details: Compound concentration 10.0 uM
[14] = target: Alpha-2B adrenergic receptor (Homo sapiens) (UniProt P18089); details: Compound concentration 10.0 uM
[15] = target: Alpha-2A adrenergic receptor (Homo sapiens) (UniProt P08913); details: Compound concentration 10.0 uM
[16] = target: Bromodomain and PHD finger-containing protein 3 (Homo sapiens, UniProt Q9ULD4); assay: BRPF3 DiscoverX BROMOscan
[17] = target: Alpha-1D adrenergic receptor (Homo sapiens) (UniProt P25100); details: Compound concentration 10.0 uM
[18] = target: T1, GABA-A receptor; anion channel (Rattus norvegicus); details: Compound concentration 10.0 uM; remark: listed apart in the source
[19] = target: SWI/SNF-related matrix-associated actin-dependent regulator of chromatin subfamily A member 4 (Homo sapiens, UniProt P51532); assay: SMARCA4 DiscoverX BROMOscan
[20] = target: Beta-1 adrenergic receptor (Homo sapiens) (UniProt P08588); details: Compound concentration 10.0 uM
[21] = target: Transcription intermediary factor 1-alpha (Homo sapiens, UniProt O15164); assay: TRIM24(PHD,Bromo.) DiscoverX BROMOscan
[22] = target: Bromodomain-containing protein 1 (Homo sapiens, UniProt O95696); assay: BRD1 DiscoverX BROMOscan
Protein polybromo-1 = Protein polybromo-1 (Homo sapiens, UniProt Q86U86); assay: PBRM1(2) DiscoverX BROMOscan
[23] = target: Histamine H4 receptor (Homo sapiens) (UniProt Q9H3N8); details: Compound concentration 10.0 uM
[24] = target: Histamine H3 receptor (Homo sapiens) (UniProt Q9Y5N1); details: Compound concentration 10.0 uM
[25] = target: Chromatin remodeling regulator CECR2 (Homo sapiens, UniProt Q9BXF3); assay: CECR2 DiscoverX BROMOscan
[26] = target: Bromodomain-containing protein 9 (Homo sapiens, UniProt Q9H8M2); assay: BRD9 DiscoverX BROMOscan
[27] = target: Sigma intracellular receptor 2 (Homo sapiens) (UniProt Q5BJF2); details: Compound concentration 10.0 uM
[28] = target: Voltage-gated potassium channel, IKs; KCNQ1(Kv7.1)/KCNE1(MinK) (Homo sapiens, UniProt P15382+P51787); assay: (§1) Cross screening panel; format: protein-complex assay
[29] = target: GABA-A receptor; anion channel; assay: as §1; format: protein-complex assay
[30] = target: T2, Bromodomain-containing protein 8 (Homo sapiens, UniProt Q9H0E9); assay: BRD8(1) DiscoverX BROMOscan
[31] = target: E3 ubiquitin-protein ligase TRIM33 (Homo sapiens, UniProt Q9UPN9); assay: TRIM33(PHD,Bromo.) DiscoverX BROMOscan
[32] = target: Transcription initiation factor TFIID subunit 1 (Homo sapiens, UniProt P21675); assay: TAF1(2) DiscoverX BROMOscan
[33] = target: SWI/SNF-related matrix-associated actin-dependent regulator of chromatin subfamily A member 2 (Homo sapiens, UniProt P51531); assay: SMARCA2 DiscoverX BROMOscan
[34] = target: D(1B) dopamine receptor (Homo sapiens) (UniProt P21918); details: Compound concentration 10.0 uM
[35] = target: Nucleosome-remodeling factor subunit BPTF (Homo sapiens, UniProt Q12830); assay: FALZ DiscoverX BROMOscan
D(1A) dopamine receptor = D(1A) dopamine receptor (Homo sapiens, UniProt P21728); details: Compound concentration 10.0 uM
[36] = target: 5-hydroxytryptamine receptor 5A (Homo sapiens) (UniProt P47898); details: Compound concentration 10.0 uM
[37] = target: ATPase family AAA domain-containing protein 2B (Homo sapiens, UniProt Q9ULI0); assay: ATAD2B DiscoverX BROMOscan
[38] = target: Bromodomain adjacent to zinc finger domain protein 2A (Homo sapiens, UniProt Q9UIF9); assay: BAZ2A DiscoverX BROMOscan
[39] = target: 5-hydroxytryptamine receptor 2C (Homo sapiens) (UniProt P28335); details: Compound concentration 10.0 uM
[40] = target: Histone acetyltransferase p300 (Homo sapiens, UniProt Q09472); assay: EP300 DiscoverX BROMOscan
Rattus norvegicus = species: Rattus norvegicus; details: Compound concentration 10.0 uM
[41] = target: Alpha-1B adrenergic receptor (Homo sapiens) (UniProt P35368); details: Compound concentration 10.0 uM
[42] = target: 5-hydroxytryptamine receptor 2B (Homo sapiens) (UniProt P41595); details: Compound concentration 10.0 uM
[43] = target: T2, Bromodomain-containing protein 8; assay: BRD8(2) DiscoverX BROMOscan
[44] = target: ATPase family AAA domain-containing protein 2 (Homo sapiens, UniProt Q6PL18); assay: ATAD2A DiscoverX BROMOscan
[45] = target: 5-hydroxytryptamine receptor 7 (Homo sapiens) (UniProt P34969); details: Compound concentration 10.0 uM
[46] = target: Bromodomain-containing protein 7 (Homo sapiens, UniProt Q9NPI1); assay: BRD7 DiscoverX BROMOscan
[47] = target: Muscarinic acetylcholine receptor M4 (Homo sapiens) (UniProt P08173); details: Compound concentration 10.0 uM
[48] = target: Histamine H2 receptor (Homo sapiens) (UniProt P25021); details: Compound concentration 10.0 uM
Mu-type opioid receptor = Mu-type opioid receptor (Homo sapiens, UniProt P35372); details: Compound concentration 10.0 uM
[49] = target: 5-hydroxytryptamine receptor 1A (Homo sapiens) (UniProt P08908); details: Compound concentration 10.0 uM
Sequence of 5-hydroxytryptamine receptor 1A (Homo sapiens) (P08908 whole entry): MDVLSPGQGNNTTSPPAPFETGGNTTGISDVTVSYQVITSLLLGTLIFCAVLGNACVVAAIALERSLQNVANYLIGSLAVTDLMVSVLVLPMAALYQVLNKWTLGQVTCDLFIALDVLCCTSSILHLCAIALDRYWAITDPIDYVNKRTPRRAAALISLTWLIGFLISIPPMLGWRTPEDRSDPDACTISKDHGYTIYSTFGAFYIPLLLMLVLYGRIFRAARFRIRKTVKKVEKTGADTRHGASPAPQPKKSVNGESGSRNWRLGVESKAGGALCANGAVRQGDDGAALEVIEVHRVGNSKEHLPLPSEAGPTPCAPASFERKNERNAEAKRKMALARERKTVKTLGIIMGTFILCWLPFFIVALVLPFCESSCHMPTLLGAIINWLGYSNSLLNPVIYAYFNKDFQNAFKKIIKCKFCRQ

T2 sequence (Q9H0E9 whole entry): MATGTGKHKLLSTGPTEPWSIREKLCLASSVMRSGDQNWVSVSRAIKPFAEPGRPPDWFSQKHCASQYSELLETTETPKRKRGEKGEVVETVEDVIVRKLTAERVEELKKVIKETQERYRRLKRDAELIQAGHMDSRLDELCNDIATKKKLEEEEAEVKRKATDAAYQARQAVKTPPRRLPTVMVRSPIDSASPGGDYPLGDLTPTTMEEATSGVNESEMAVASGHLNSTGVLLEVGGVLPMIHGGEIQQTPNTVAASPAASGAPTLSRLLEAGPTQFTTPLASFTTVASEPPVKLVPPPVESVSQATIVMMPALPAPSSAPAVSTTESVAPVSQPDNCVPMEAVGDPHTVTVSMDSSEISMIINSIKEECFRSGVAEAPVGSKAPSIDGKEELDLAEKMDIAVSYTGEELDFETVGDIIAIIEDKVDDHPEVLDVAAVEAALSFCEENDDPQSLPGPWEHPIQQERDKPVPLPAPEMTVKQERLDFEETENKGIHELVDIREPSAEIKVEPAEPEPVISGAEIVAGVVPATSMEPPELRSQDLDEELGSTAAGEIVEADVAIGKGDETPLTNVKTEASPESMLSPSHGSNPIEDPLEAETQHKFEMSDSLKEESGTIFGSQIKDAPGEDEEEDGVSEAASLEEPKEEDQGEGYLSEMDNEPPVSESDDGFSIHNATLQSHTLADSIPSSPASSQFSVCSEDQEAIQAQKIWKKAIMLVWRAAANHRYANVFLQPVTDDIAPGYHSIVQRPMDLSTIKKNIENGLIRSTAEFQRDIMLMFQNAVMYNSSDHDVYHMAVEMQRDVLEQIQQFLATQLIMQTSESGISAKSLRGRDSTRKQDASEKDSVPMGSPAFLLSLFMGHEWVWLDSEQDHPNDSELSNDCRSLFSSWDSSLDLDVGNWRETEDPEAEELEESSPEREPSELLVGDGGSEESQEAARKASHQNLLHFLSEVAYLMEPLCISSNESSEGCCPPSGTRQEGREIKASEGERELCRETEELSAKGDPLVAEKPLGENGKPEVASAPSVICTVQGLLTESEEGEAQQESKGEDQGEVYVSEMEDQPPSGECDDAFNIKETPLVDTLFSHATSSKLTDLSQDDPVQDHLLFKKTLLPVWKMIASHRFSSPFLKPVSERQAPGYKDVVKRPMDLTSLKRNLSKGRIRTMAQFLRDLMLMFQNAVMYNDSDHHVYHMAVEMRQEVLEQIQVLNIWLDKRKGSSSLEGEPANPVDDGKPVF
Sequence of Alpha-1B adrenergic receptor (Homo sapiens) (P35368 whole entry): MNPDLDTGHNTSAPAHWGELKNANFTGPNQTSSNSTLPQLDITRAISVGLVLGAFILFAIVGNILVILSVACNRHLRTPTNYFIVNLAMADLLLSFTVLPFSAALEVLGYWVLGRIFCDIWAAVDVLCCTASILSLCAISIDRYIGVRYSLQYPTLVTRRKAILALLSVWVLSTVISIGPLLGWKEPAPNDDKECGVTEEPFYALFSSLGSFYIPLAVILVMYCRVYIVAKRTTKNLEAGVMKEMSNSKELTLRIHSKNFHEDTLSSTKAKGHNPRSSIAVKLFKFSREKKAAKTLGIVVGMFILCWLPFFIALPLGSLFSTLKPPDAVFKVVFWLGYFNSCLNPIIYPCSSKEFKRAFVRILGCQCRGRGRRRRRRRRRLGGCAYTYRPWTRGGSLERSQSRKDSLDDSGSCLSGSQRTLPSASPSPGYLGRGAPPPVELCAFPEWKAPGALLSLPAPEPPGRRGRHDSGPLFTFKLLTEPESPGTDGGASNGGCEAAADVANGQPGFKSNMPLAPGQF
Sequence of Histone acetyltransferase p300 (Q09472 whole entry): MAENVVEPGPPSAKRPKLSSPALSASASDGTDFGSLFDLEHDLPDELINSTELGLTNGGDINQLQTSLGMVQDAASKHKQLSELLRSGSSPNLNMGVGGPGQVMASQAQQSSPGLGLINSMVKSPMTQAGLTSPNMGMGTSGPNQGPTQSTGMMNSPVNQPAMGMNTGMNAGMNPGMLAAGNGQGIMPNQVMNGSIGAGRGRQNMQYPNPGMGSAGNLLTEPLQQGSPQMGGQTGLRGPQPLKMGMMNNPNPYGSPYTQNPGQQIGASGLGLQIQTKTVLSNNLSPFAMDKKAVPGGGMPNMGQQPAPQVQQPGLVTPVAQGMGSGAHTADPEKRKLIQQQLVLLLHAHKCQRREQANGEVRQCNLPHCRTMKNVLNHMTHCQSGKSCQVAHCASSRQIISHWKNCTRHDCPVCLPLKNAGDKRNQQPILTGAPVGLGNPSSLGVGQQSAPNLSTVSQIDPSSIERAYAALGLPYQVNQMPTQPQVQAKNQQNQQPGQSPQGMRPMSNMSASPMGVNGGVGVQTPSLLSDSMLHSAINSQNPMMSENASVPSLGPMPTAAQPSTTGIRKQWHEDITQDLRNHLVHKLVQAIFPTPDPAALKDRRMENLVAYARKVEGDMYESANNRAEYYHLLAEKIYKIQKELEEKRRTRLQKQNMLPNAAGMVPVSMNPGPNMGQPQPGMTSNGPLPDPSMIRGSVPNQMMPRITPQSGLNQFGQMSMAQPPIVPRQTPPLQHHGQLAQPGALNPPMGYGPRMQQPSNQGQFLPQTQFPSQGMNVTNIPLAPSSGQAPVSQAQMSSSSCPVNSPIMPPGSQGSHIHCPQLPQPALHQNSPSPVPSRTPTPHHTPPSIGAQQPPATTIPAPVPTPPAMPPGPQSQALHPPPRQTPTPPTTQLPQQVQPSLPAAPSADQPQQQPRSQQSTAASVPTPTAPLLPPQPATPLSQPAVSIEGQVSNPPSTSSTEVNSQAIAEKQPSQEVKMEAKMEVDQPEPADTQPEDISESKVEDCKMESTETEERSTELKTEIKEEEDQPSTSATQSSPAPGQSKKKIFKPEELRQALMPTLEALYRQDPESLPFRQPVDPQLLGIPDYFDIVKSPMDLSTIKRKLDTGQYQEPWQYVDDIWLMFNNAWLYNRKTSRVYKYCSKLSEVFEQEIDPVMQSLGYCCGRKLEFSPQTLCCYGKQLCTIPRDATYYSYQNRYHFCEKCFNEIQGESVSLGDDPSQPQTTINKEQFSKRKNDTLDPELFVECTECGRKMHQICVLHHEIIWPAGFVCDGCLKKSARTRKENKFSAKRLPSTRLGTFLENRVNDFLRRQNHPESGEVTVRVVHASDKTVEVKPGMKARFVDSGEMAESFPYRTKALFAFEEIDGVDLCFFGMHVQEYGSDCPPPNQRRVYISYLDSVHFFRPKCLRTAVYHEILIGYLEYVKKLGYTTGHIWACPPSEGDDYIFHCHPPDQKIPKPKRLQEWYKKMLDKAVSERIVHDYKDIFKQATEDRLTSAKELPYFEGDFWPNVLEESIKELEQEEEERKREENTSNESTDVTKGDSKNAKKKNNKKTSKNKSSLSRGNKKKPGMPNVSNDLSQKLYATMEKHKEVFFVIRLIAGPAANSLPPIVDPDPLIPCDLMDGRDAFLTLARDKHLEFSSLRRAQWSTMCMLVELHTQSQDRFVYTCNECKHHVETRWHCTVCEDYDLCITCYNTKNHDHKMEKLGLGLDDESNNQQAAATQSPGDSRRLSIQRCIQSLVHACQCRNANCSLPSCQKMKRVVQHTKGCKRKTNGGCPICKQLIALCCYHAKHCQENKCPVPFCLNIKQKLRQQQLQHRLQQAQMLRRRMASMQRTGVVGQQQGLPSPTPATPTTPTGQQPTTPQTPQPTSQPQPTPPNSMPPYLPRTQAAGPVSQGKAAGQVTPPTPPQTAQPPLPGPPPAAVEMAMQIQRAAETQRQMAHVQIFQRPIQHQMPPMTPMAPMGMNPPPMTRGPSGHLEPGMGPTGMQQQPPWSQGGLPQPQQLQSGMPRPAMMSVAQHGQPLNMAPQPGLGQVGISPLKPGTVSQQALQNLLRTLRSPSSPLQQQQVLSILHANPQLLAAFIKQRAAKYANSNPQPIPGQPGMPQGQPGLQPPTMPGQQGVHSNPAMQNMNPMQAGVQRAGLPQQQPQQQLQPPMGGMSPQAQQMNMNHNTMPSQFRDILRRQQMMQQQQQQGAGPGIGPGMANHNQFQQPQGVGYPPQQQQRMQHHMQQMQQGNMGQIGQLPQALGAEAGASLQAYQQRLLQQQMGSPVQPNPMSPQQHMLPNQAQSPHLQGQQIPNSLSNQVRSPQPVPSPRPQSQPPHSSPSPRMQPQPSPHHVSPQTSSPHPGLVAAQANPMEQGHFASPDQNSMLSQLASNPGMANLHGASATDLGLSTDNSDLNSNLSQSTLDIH
Sequence of Histamine H2 receptor (Homo sapiens) (P25021 whole entry): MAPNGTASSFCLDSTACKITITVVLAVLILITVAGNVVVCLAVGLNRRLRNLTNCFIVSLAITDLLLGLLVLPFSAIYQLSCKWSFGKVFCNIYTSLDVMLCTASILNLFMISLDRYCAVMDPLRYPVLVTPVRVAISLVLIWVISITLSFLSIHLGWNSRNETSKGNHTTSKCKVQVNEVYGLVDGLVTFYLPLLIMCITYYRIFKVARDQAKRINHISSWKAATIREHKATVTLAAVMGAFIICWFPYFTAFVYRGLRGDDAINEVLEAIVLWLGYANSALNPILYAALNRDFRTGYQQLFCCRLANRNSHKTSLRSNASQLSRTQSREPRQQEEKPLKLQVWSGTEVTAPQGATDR
Sequence of C-C motif chemokine 2 (P13500 whole entry): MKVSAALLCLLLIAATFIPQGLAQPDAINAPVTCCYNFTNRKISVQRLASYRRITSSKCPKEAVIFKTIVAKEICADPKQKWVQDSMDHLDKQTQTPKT

CNC(=O)c1cc(C(=O)NC2CC2)cn(Cc2ccccc2)c1=O [GSK620]
inhibition [1]: 13.2%
IC50 (C-C motif chemokine 2): 0.794 µM (active)
inhibition (D(2) dopamine receptor): -2.98%
inhibition [2]: 1.54%
Kd (CREB-binding protein): 10 µM
Kd [3]: 31.6 µM
inhibition [4]: 8.55%
inhibition [5]: -3.67%
Kd [6]: 31.6 µM
Kd [7]: 31.6 µM
inhibition [8]: -2.78%
Kd [9]: 31.6 µM
inhibition [10]: 14.3%
inhibition [11]: 10.9%
inhibition [12]: 16.5%
inhibition [13]: 6.96%
inhibition [14]: 5.2%
inhibition [15]: -4.53%
Kd [16]: 31.6 µM
inhibition [17]: 2.36%
inhibition [18]: 28.2%
Kd [19]: 31.6 µM
inhibition [20]: -6.19%
Kd [21]: 31.6 µM
Kd [22]: 25.1 µM
Kd (Protein polybromo-1): 31.6 µM
inhibition [23]: 16.1%
inhibition [24]: -8.16%
Kd [25]: 31.6 µM
Kd [26]: 31.6 µM
inhibition [27]: 7.83%
IC50 [28]: > 25.1 µM
pEC50 [29]: < 4
pIC50 [29]: < 4
Kd [30]: 31.6 µM
Kd [31]: 31.6 µM
Kd [32]: 3.98 µM
Kd [33]: 31.6 µM
inhibition [34]: 18.6%
Kd [35]: 25.1 µM
inhibition (D(1A) dopamine receptor): 6.94%
inhibition [36]: -4.41%
Kd [37]: 31.6 µM
Kd [38]: 31.6 µM
inhibition [39]: 32.1%
Kd [40]: 7.94 µM
inhibition (Rattus norvegicus): 7.71%
inhibition [41]: 7.27%
inhibition [42]: 16.5%
Kd [43]: 31.6 µM
Kd [44]: 31.6 µM
inhibition [45]: 13.6%
Kd [46]: 31.6 µM
inhibition [47]: 0.52%
inhibition [48]: -9.14%
inhibition (Mu-type opioid receptor): 13.5%
inhibition [49]: 6.03%
